The values below come from patent publication US11089783B2, “2-(het)aryl-substituted fused heterocycle derivatives as pesticides” (Bayer Aktiengesellschaft, priority 2017, dated 2021).

Holding throughout (assay type): in vivo
The test system of assay [1] is Meloidogyne incognita. Description: Meloidogyne incognita test (MELGIN). The settings on record: 20 ppm, 14 days (14 dat). On the procedure: [table] To produce a suitable active ingredient formulation, 1 part by weight of active ingredient is mixed with the stated amount of solvent and the concentrate is diluted to the desired concentration with water. Vessels are filled with sand, active ingredient solution, an egg/larvae suspension of the southern root-knot nematode (Meloidogyne incognita) and lettuce seeds. The lettuce seeds germinate and the plants develop. The galls develop on the roots. After 14 days, the nematicidal efficacy in % is determined by the formation of galls. 100% means that no galls were found; 0% means that the number of galls on the treated plants corresponds to the untreated control. [table] To produce an appropriate active ingredient formulation, 1 part by weight of active ingredient is mixed with the specified amount of solvent and the concentrate is diluted to the desired concentration with water. Vessels are filled with sand, active ingredient solution, an egg/larvae suspension of the southern root-knot nematode (Meloidogyne incognita) and lettuce seeds. The lettuce seeds germinate and the plants develop. The root-knots develop on the roots. After the desired time, the nematicidal effect is determined from the formation of root-knots in %. 100% means that no root-knots were found; 0% means that the number of root-knots on the treated plants corresponds to that on the untreated control.

Assay [2] deals with Phaedon cochleariae. As to the kind of experiment: Phaedon cochleariae spray test (PHAECO S), cabbage leaves. The settings on record: 20 ppm, 7 dat. The procedure: (§1) [table] To produce an appropriate active ingredient formulation, 1 part by weight of active ingredient is dissolved with the specified parts by weight of solvent and made up with water containing an emulsifier concentration of 1000 ppm until the desired concentration is attained. To produce further test concentrations, the mixture is diluted with emulsifier-containing water. If addition of ammonium salts or/and penetrants is required, these are each added to the preparation solution in a concentration of 1000 ppm. Cabbage leaves (Brassica oleracea) are sprayed with an active ingredient formulation of the desired concentration and populated with larvae of the mustard beetle (Phaedon cochleariae). After the desired time, the kill in % is determined. 100% means that all beetle larvae have been killed; 0% means that no beetle larvae have been killed.

Assay [3] concerns Nilaparvata lugens. As to the kind of experiment: Nilaparvata lugens spray test (NILALU). The settings on record: 4 dat; for Emax at 20 g/ha / Emax at 100 g/ha: Nilaparvata lugens, 96 h, read-out: % efficacy. On the procedure:
(§2) [table] To produce an appropriate active ingredient formulation, 1 part by weight of active ingredient is dissolved with the specified parts by weight of solvent and made up with water containing an emulsifier concentration of 1000 ppm until the desired concentration is attained. To produce further test concentrations, the mixture is diluted with emulsifier-containing water. If addition of ammonium salts or/and penetrants is required, these are each added to the preparation solution in a concentration of 1000 ppm. Rice plants (Oryza sativa) are sprayed with an active ingredient formulation of the desired concentration and then populated with larvae of the brown planthopper (Nilaparvata lugens). After the desired time, the efficacy in % is determined. 100% means that all planthoppers have been killed; 0% means that no planthoppers have been killed.

In assay [4] the test system is Nezara viridula. As to the kind of experiment: Nezara viridula spray test (NEZARA / NEZAVI). The settings on record: 500 g/ha, 4 dat. The procedure:
as §2, with “Barley” for “Rice”, “(Hordeum vulgare) infected with larvae of the southern green shield bug (Nezara viridula)” for “(Oryza sativa)”, “concentration.” for “concentration and then populated with larvae of the brown planthopper (Nilaparvata lugens).”, “bugs” for “planthoppers”

Assay [5] concerns Phaedon cochleariae. As to the kind of experiment: Phaedon cochleariae spray test (PHAECO), Chinese cabbage leaf discs. The settings on record: for % efficacy / percent efficacy (larval mortality) at a fixed application rate at 20 g/ha: PHAECO, 7 dat; for pest or weed control at 100 g/ha / percent efficacy (larval mortality) at a fixed application rate at 20 g/ha: Phaedon cochleariae, foliar, 168 h; for pest or weed control at 100 g/ha: read-out: efficacy. On the procedure: (§3) [table] To produce a suitable active ingredient formulation, 1 part by weight of active ingredient is dissolved with the specified parts by weight of solvent and made up to the desired concentration with water containing an emulsifier concentration of 1000 ppm. To produce further test concentrations, the formulation is diluted with emulsifier-containing water. Discs of Chinese cabbage leaves (Brassica pekinensis) are sprayed with an active ingredient formulation of the desired concentration and, after drying, populated with larvae of the mustard beetle (Phaedon cochleariae). After 7 days, the efficacy in % is determined. 100% means that all the beetle larvae have been killed; 0% means that no beetle larvae have been killed. [table] To produce an appropriate active ingredient formulation, 1 part by weight of active ingredient is dissolved with the stated parts by weight of solvent and made up with water containing an emulsifier concentration of 1000 ppm until the desired concentration is attained. For production of further test concentrations, the mixture is diluted with emulsifier-containing water. Discs of chinese cabbage leaves (Brassica pekinensis) are sprayed with an active ingredient formulation of the desired concentration and, after drying, populated with larvae of the mustard beetle (Phaedon cochleariae). After the desired time, the efficacy in % is determined. 100% means that all beetle larvae have been killed; 0% means that no beetle larvae have been killed.

In assay [6] the test system is Myzus persicae. As to the kind of experiment: Myzus persicae spray test (MYZUPE), Chinese cabbage leaf discs. The settings on record: for pest or weed control at 100 g/ha / pest or weed control at 20 g/ha: Myzus persicae, foliar, 120 h, 5 days (5 dat), read-out: efficacy. On the procedure:
as §3, with “pekinensis) infested by all stages of the green peach aphid (Myzus persicae)” for “pekinensis)”, “concentration.” for “concentration and, after drying, populated with larvae of the mustard beetle (Phaedon cochleariae).”, “5” for “7”, “aphids” for “beetle larvae”

Assay [7] concerns Aphis gossypii. Description: Aphis gossypii spray test (APHIGO), cotton plants. The settings on record: 6 dat; for Emax at 0.8 ppm / Emax at 4 ppm: Aphis gossypii, 144 h, read-out: % efficacy. The procedure:
as §1, with “Cotton plants (Gossypium hirsutum) severely infested by the cotton aphid (Aphis gossypii)” for “Cabbage leaves (Brassica oleracea)”, “concentration.” for “concentration and populated with larvae of the mustard beetle (Phaedon cochleariae).”, “aphids” for “beetle larvae”

Assay [8] relates to Lucilia cuprina. As to the kind of experiment: Lucilia cuprina test. The settings on record: 48 h, L1 larvae, after 2 days, read-out: efficacy (kill). On the procedure:
Solvent: dimethyl sulfoxide To produce a suitable active ingredient formulation, 10 mg of active ingredient are mixed with 0.5 ml of dimethyl sulfoxide, and the concentrate is diluted with water to the desired concentration. About 20 L1 larvae of the Australian sheep blowfly (Lucilia cuprina) are transferred into a test vessel containing minced horsemeat and the active ingredient formulation of the desired concentration. After 2 days, the kill in % is determined. 100% means that all the larvae have been killed; 0% means that no larvae have been killed.

The test system of assay [9] is Myzus persicae. Description: Myzus persicae oral test. The settings on record: 120 h, after 5 days, read-out: efficacy. The procedure: [table] To produce a suitable active ingredient formulation, 1 part by weight of active ingredient is dissolved with the stated parts by weight of solvent and made up to the desired concentration with water. 50 μl of the active ingredient preparation are transferred into microtitre plates and made up to a final volume of 200 μl with 150 μl of IPL41 insect medium (33%+15% sugar). Subsequently, the plates are sealed with parafilm, which a mixed population of green peach aphids (Myzus persicae) within a second microtitre plate is able to puncture and imbibe the solution. After 5 days, the efficacy in % is determined. 100% means that all the aphids have been killed; 0% means that no aphids have been killed.

The subject of assay [10] is Myzus persicae. Description: Myzus persicae spray test (MYZUPE S), bell pepper plants. The settings on record: 144 h, 6 dat, read-out: % efficacy. The procedure:
[table] To produce an appropriate active ingredient formulation, 1 part by weight of active ingredient is dissolved with the specified parts by weight of solvent and made up with water containing an emulsifier concentration of 1000 ppm until the desired concentration is attained. To produce further test concentrations, the mixture is diluted with emulsifier-containing water. If addition of ammonium salts or/and penetrants is required, these are each added to the preparation solution in a concentration of 1000 ppm. Bell pepper plants (Capsicum annuum) severely infested by the green peach aphid (Myzus persicae) are treated by spraying with the active ingredient formulation in the desired concentration. After the desired time, the kill in % is determined. 100% means that all the animals have been killed; 0% means that no animals have been killed.

Consider `CCS(=O)(=O)c1ccc(C(N)=O)nc1-c1nc2cc(C(F)(F)C(F)(F)F)nnc2n1C` [drawing 40, reference compound], for which the “efficacy (nematicidal, gall formation)” value in assay [1] is 0%. The “% efficacy” value in assay [2] came out at 0%; in assay [3] (20 g/ha) it was 50%; in [4], 0%; in [5] (0.8 g/ha) it was 0%; in [5] (4 g/ha), 33%.
Regarding `CCS(=O)(=O)c1ccc(C(=O)NC)nc1-c1nc2cc(C(F)(F)C(F)(F)F)nnc2n1C` [Ex. I-39 from WO2017/025419, reference compound], the “efficacy (nematicidal, gall formation)” value in assay [1] amounted to 0%. Besides, the “% efficacy” value amounted to 0% in assay [3] (4 g/ha); 0% in assay [5] (20 g/ha); 0% in assay [6] (MYZUPE, 4 g/ha, 5 dat); 0% in [7] (0.8 ppm); 55% in assay [7] (4 ppm). Further, the efficacy in assay [5] (100 g/ha, 7 days (7 dat)) is given as 0%.
In the case of `CCS(=O)(=O)c1ccc(C(N)=O)nc1-c1nc2cc(C(F)(F)C(F)(F)F)nnc2n1C` [Example I-02], the pest or weed control at 100 ppm in assay [8] came out at 100%. Moreover, the “efficacy (nematicidal, gall formation)” value in assay [1] is recorded as 90%. The “% efficacy” value is on record as 100% in [2]; 90% in assay [3] (20 g/ha); 90% in [4]; 83% in assay [5] (0.8 g/ha); 100% in assay [5] (4 g/ha). Besides, the pest or weed control at 100 g/ha in assay [5] (100 g/ha, 7 days (7 dat)) stood at 100%; in assay [6], 100%. Besides, the pest or weed control at 0.8 ppm in [9] amounted to 100%.
Regarding `CCS(=O)(=O)c1ccc(C(=O)N(C)C)nc1-c1nc2cc(C(F)(F)C(F)(F)F)nnc2n1C` [Example I-05], the Emax at 0.8 ppm stood at 95% in assay [10] and 65% in assay [7] (0.8 ppm). In assay [8], the pest or weed control at 100 ppm stood at 100%. Besides, the pest or weed control at 100 g/ha in assay [5] (100 g/ha, 7 days (7 dat)) is 100%; in assay [6], 90%. Besides, in assay [9], the pest or weed control at 0.8 ppm was 100%. Further, the pest or weed control at 20 g/ha in [6] was 90%.
For the compound `CCS(=O)(=O)c1ccc(C(=O)NC2CC2)nc1-c1nc2cc(C(F)(F)F)nnc2n1C` [reference compound], the Emax at 4 ppm in [10] and in assay [7] (4 ppm) was 0% in each case. In addition, in [3] (20 g/ha), the Emax at 20 g/ha was 0%. The Emax at 100 g/ha in assay [3] turned out to be 0%. Besides, the pest or weed control at 100 g/ha in assay [5] (100 g/ha, 7 days (7 dat)) amounted to 33%. Further, the percent efficacy (larval mortality) at a fixed application rate at 20 g/ha in assay [5] (20 g/ha) was 33%. Also, in [6], the pest or weed control at 20 g/ha was found to be 0%.
Turning to `CCS(=O)(=O)c1ccc(C(=O)N(C)C)nc1-c1nc2cc(C(F)(F)F)nnc2n1C` [reference compound], the Emax at 0.8 ppm amounted to 50% in [10] and 0% in assay [7] (0.8 ppm). Also, in [5] (100 g/ha, 7 days (7 dat)), the pest or weed control at 100 g/ha was found to be 33%.
For the compound `CCS(=O)(=O)c1ccc(C(=O)NC2CC2)nc1-c1nc2cc(C(F)(F)C(F)(F)F)nnc2n1C` [Example I-03], the Emax at 4 ppm worked out at 100% in [10] and 95% in assay [7] (4 ppm). In addition, the pest or weed control at 100 ppm in assay [8] was 100%. Moreover, in [3] (20 g/ha), the Emax at 20 g/ha turned out to be 80%. Further, the Emax at 100 g/ha in assay [3] was 100%. For the same compound, the pest or weed control at 100 g/ha in [5] (100 g/ha, 7 days (7 dat)) is 100%; in assay [6], 100%. The compound also showed a percent efficacy (larval mortality) at a fixed application rate at 20 g/ha in assay [5] (20 g/ha) of 100%. The pest or weed control at 0.8 ppm in assay [9] came out at 100%. Further, the pest or weed control at 20 g/ha in assay [6] turned out to be 90%.
